Values of other authors in patent publication US6686317B2, “Supported fluridone compositions and methods” (SePro Corporation, priority 2001, dated 2004).
Read-outs that look alike come from different tables or passages of the source.

Tested on: aquatic plants

Substance: 1-methyl-3-phenyl-5-3-(trifluoromethyl)phenyl-4(1H)-pyridinone [fluridone]
- concentration to which plant species are usually susceptible (other species susceptible only to higher concentrations): 150 ppb
- concentration to which plant species are usually susceptible (some (more susceptible) species, as low as): about 5 ppb
